US9975896B2, “Inhibitors of transcription factors and uses thereof” (Dana-Farber Cancer Institute, Inc., priority 2013, dated 2018)

These compounds were tested on BRD4-dependent Nut-Midline Carcinoma line 797 (assay: Cell viability (ATPlite) in BRD4 dependant cell line 797). Settings: Homo sapiens, read-out: 797--EC50 (μM).

Row | SMILES | EC50 [µM]
1 | CCCCN1C(=O)c2ccccc2NC(=O)C1c1ccc(-c2c(C)noc2C)c(OC)c1 (stereo not shown) [UMB18, 2-Butyl-3-(4-(3,5-dimethylisoxazol-4-yl)-3-methoxyphenyl)-2,3-dihydro-1H-benzo[e][1,4]diazepine-1,4(5H)-dione] | 9.91

What follows are compounds tested against BRD4 (Homo sapiens, UniProt O60885) (assay: In vitro AlphaScreen protein binding assay (competition with biotinylated JQ1)). Settings: BRD4--IC50 (μM), Table 6; biochemical.
Procedure: Assays were performed with minor modifications from the manufacturer's protocol (PerkinElmer, USA). All reagents were diluted in 50 mM HEPES, 150 mM NaCl, 0.1% w/v BSA, and 0.01% w/v Tween® 20 at pH 7.5 and allowed to equilibrate to room temperature prior to addition to plates. After addition of Alpha beads to master solutions, all subsequent steps were performed in low light conditions. […] After a 1000-rpm spin-down for 1 minute, 100 nL of the solutions of compounds of the invention in DMSO from stock plates were added by pin transfer using a Janus Workstation (PerkinElmer, USA). The streptavidin-coated donor beads (25 μg/ml final) were added as with previous solution in a 2×, 10 μL volume. Following this addition, the plates were sealed with foil to block light exposure and to prevent evaporation. The plates were spun down again at 1000 rpm for 1 minute. Next, the plates were incubated in the room with the plate reader (for temperature equilibration) for 1 hour prior to reading the assay. Signal is stable for up to 3 hours after donor bead addition.

Row | SMILES | IC50 [µM]
2 | Cc1noc(C)c1-c1ccc(-c2nc3cnccn3c2NCC(=O)O)cc1 [Compound 22a, 2-((2-(4-(3,5-Dimethylisoxazol-4-yl)phenyl)imidazo[1,2-a]pyrazin-3-yl)amino)acetic acid] | > 100

Same assay, conditions: read-out: BRD4--IC50; Table 5; biochemical

Row | SMILES | IC50 [µM]
3 | CCCCN1C(=O)c2ccccc2NC(=O)C1c1ccc(-c2c(C)noc2C)c(OC)c1 (stereo not shown) [UMB18, 2-Butyl-3-(4-(3,5-dimethylisoxazol-4-yl)-3-methoxyphenyl)-2,3-dihydro-1H-benzo[e][1,4]diazepine-1,4(5H)-dione] | 13

Same assay, conditions: read-out: BRD4--IC50; Table 6; biochemical

Row | SMILES | IC50 [µM]
4 | Cc1noc(C)c1-c1ccc(-c2nc3ccccn3c2N)cc1 [Compound 12a, 2-(4-(3,5-Dimethylisoxazol-4-yl)phenyl)imidazo[1,2-a]pyridin-3-amine] | 3.89
5 | Cc1noc(C)c1-c1ccc(-c2nc3cnccn3c2N[C@@H](C)c2ccccc2)cc1 [Compound 21a, (S)-2-(4-(3,5-dimethylisoxazol-4-yl)phenyl)-N-(1-phenylethyl)imidazo[1,2-a]pyrazin-3-amine] | 2.86
6 | CCOC(=O)CNc1c(-c2ccc(-c3c(C)noc3C)cc2)nc2cnccn12 [Compound 23a, Ethyl 2-((2-(4-(3,5-dimethylisoxazol-4-yl)phenyl)imidazo[1,2-a]pyrazin-3-yl)amino)acetate] | 4.53
7 | Cc1noc(C)c1-c1ccc(-c2nc3cnccn3c2NCC(=O)OC(C)(C)C)cc1 [Compound 24a, Tert-butyl (2-(4-(3,5-dimethylisoxazol-4-yl)phenyl)imidazo[1,2-a]pyrazin-3-yl)glycinate] | 4.96
8 | Cc1ccc2nc(-c3ccc(-c4c(C)noc4C)cc3)c(NC(C)(C)C)n2c1 [Compound 27a, N-(tert-butyl)-2-(4-(3,5-dimethylisoxazol-4-yl)phenyl)-6-methylimidazo[1,2-a]pyridin-3-amine] | 3.17
9 | Cc1noc(C)c1-c1ccc(-c2nc3c(C(F)(F)F)cccn3c2NC(C)(C)C)cc1 [Compound 28a, N-(tert-butyl)-2-(4-(3,5-dimethylisoxazol-4-yl)phenyl)-8-(trifluoromethyl)imidazo[1,2-a]pyridin-3-amine] | 11.9
10 | COC(=O)c1ccc2nc(-c3ccc(-c4c(C)noc4C)cc3)c(NC(C)(C)C)n2c1 [Compound 29a, Methyl 3-(tert-butylamino)-2-(4-(3,5-dimethylisoxazol-4-yl)phenyl)imidazo[1,2-a]pyridine-6-carboxylate] | 1.62
11 | Cc1noc(C)c1-c1ccc(-c2nc3ccc(C(=O)O)cn3c2NC(C)(C)C)cc1 [Compound 30a, 3-(Tert-butylamino)-2-(4-(3,5-dimethylisoxazol-4-yl)phenyl)imidazo[1,2-a]pyridine-6-carboxylic acid] | 0.968
12 | Cc1noc(C)c1-c1ccc(-c2nc3ncccn3c2NC(C)(C)C)cc1 [Compound 33a, N-(Tert-butyl)-2-(4-(3,5-dimethylisoxazol-4-yl)phenyl)imidazo[1,2-a]pyrimidin-3-amine] | 0.86
13 | CCCCNc1c(-c2ccc(-c3c(C)noc3C)cc2)nc2cnccn12 [Compound 35a, N-butyl-2-(4-(3,5-dimethylisoxazol-4-yl)phenyl)imidazo[1,2-a]pyrazin-3-amine] | 1.66
14 | Cc1noc(C)c1-c1ccc(-c2nc3ccncn3c2NC(C)(C)C)cc1 [UMB56, N-(Tert-butyl)-2-(4-(3,5-dimethylisoxazol-4-yl)phenyl)imidazo[1,2-c]pyrimidin-3-amine] | 20.7

Same assay, conditions: read-out: BRD4--IC50; Table 7; biochemical

Row | SMILES | IC50 [µM]
15 | COc1cc(-c2c(C)noc2C)ccc1-c1nc2cnccn2c1NC(C)(C)C [Compound 39a, N-(tert-butyl)-2-(4-(3,5-dimethylisoxazol-4-yl)-2-methoxyphenyl)imidazo[1,2-a]pyrazin-3-amine] | 0.562
16 | COc1cc(-c2c(C)noc2C)ccc1-c1nc2cnccn2c1NC(C)C [Compound 40a, 2-(4-(3,5-dimethylisoxazol-4-yl)-2-methoxyphenyl)-N-isopropylimidazo[1,2-a]pyrazin-3-amine] | 0.474
